Measurements published in patent US10988466B2, “Heterocyclic derivatives useful as SHP2 inhibitors” (Jacobio Pharmaceuticals Co., Ltd., priority 2017, dated 2021).

Target: T1, SHP2 (Homo sapiens, UniProt Q06124)
T1 sequence (Q06124 1-593): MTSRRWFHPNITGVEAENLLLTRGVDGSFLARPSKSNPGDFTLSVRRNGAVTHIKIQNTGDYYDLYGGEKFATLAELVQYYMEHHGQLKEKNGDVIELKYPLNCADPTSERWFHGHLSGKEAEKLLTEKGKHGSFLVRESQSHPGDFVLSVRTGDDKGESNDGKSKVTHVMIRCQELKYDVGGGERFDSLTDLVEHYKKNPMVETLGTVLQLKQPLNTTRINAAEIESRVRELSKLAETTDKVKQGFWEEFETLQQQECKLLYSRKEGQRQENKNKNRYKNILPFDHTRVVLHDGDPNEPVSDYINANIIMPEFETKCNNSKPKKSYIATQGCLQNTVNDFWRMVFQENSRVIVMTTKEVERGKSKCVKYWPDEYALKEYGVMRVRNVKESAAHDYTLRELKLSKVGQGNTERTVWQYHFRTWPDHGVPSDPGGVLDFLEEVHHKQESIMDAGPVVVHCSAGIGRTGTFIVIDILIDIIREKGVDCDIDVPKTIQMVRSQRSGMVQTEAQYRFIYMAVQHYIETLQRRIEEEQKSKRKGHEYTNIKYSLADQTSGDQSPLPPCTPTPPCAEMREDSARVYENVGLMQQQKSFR
Experiment: biochemical
Conditions: read-out: SHP2 inhibition (%)@0.1 μM
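Note: compounds preincubated 30 min at room temperature in the assay mixture, activity referenced to a 0.5% (v/v) DMSO control taken as 100%, run in triplicate.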

| Structure (SMILES) | inhibition at 0.1 µM |
| --- | --- |
| Nc1nccc(Sc2cnc(N3CCC4(CC3)Cc3ccccc3[C@H]4N)cn2)c1Cl [Example 48, (S)-1′-(5-((2-amino-3-chloropyridin-4-yl)thio)pyrazin-2-yl)-1,3-dihydro-spiro[indene-2,4′-piperidin]-1-amine] | 81% |
| CN(C)c1nccc(Sc2cnc(N3CCC4(CC3)Cc3ccccc3[C@H]4N)cn2)c1Cl [Example 49, (S)-1′-(5-((3-chloro-2-(dimethylamino)pyridin-4-yl)thio)pyrazin-2-yl)-1,3-dihydrospiro[indene-2,4′-piperidin]-1-amine] | 85% |
| Nc1cccc(Sc2cnc(N3CCC4(CC3)Cc3ccccc3[C@H]4N)cn2)c1Cl [Example 50, (S)-1′-(5-((3-amino-2-chlorophenyl)thio)pyrazin-2-yl)-1,3-dihydrospiro [indene-2,4′-piperidin]-1-amine] | 77% |
| COc1nccc(Sc2cnc(N3CCC4(CC3)Cc3ccccc3[C@H]4N)cn2)c1Cl [Example 51, (S)-1′-(5-((3-chloro-2-methoxypyridin-4-yl)thio)pyrazin-2-yl)-1,3-dihydro-spiro[indene-2,4′-piperidin]-1-amine] | 85% |
| Nc1cccc(Sc2ncc(N3CCC4(CC3)Cc3ccccc3[C@H]4N)nc2N)c1Cl [Example 53, (S)-1′-(6-amino-5-((3-amino-2-chlorophenyl)thio)pyrazin-2-yl)-1,3-dihydro spiro[2,4′-piperidin]-1-amine] | 84% |
| COc1nccc(Sc2ncc(N3CCC4(CC3)Cc3ccccc3[C@H]4N)nc2N)c1Cl [Example 54, (S)-1′-(6-amino-5-((3-chloro-2-methoxypyridin-4-yl)thio)pyrazin-2-yl)-1,3-dihydrospiro [indene-2,4′-piperidin]-1-amine] | 69% |
| Nc1nc(N2CCC3(CC2)Cc2ccc(C(=O)N4CCCCC4)cc2[C@H]3N)cnc1Sc1ccnc(N)c1Cl [Example 59, (S)-(1-amino-1′-(6-amino-5-((2-amino-3-chloropyridin-4-yl)thio)pyrazin-2-yl)-1,3-dihydrospiro [indene-2,4′-piperidin]-6-yl)(piperidin-1-yl)methanone] | 69% |
| Nc1nc(N2CCC3(CC2)Cc2ccc(N4CCOCC4)cc2[C@H]3N)cnc1Sc1ccnc(N)c1Cl [Example 60, (S)-1′-(6-amino-5-((2-amino-3-chloropyridin-4-yl)thio)pyrazin-2-yl)-6-morpholino-1,3-dihydro-spiro[indene-2,4′-piperidin]-1-amine] | 70% |
| Nc1nc(N2CCC3(CC2)Cc2cc(F)c(F)c(F)c2[C@H]3N)cnc1Sc1ccnc(N)c1Cl [Example 61, (S)-1′-(6-amino-5-((2-amino-3-choropyridin-4-yl)thio)pyrazin-2-yl)-5,6,7-trifluoro-1,3-dihydro-spiro[indene-2,4′-piperidin]-1-amine] | 74% |
| Nc1nc(N2CCC3(CC2)Cc2ccc(N4CCOCC4=O)cc2[C@H]3N)cnc1Sc1ccnc(N)c1Cl [Example 62, (S)-4-(1-amino-1′-(6-amino-5-((2-amino-3-chloropyridin-4-yl)thio)pyrazin-2-yl)-1,3-dihydrospiro [indene-2,4′-piperidin]-6-yl) morpholin-3-one] | 76% |
| CS(=O)(=O)Nc1ccc2c(c1)[C@@H](N)C1(CCN(c3cnc(Sc4ccnc(N)c4Cl)c(N)n3)CC1)C2 [Example 63, (S)-N-(1-amino-1′-(6-amino-5-((2-amino-3-chloropyridin-4-yl)thio)pyrazin-2-yl)-1,3-dihydrospiro [indene-2,4′-piperidin]-6-yl)methane-sulfonamide] | 93% |
| Nc1nc(N2CCC3(CC2)Cc2cnccc2[C@@H]3N)cnc1Sc1ccnc(N)c1Cl [Example 65, (R)-1′-(6-amino-5-((2-amino-3-chloropyridin-4-yl)thio)pyrazin-2-yl)-5,7-dihydrospiro[cyclopenta [c]pyridine-6,4′-piperidin]-5-amine] | 0% |
| Nc1nc(N2CCC3(CC2)Cc2ccccc2[C@H]3N)cnc1Sc1ccnc(Cl)c1Cl [Example 66, (S)-1′-(6-amino-5-((2,3-dichloropyridin-4-yl)thio)pyrazin-2-yl)-1,3-dihydro-spiro[indene-2,4′-piperidin]-1-amine] | 72% |
| Nc1nc(N2CCC3(CC2)[C@H](N)c2ccccc2[C@H]3N)cnc1Sc1ccnc(N)c1Cl [Example 67, (1R,3R)-1′-(6-amino-5-((2-amino-3-chloropyridin-4-yl)thio)pyrazin-2-yl)-1,3-dihydrospiro[indene-2,4′-piperidine]-1,3-diamine] | 63% |
| Nc1nc(N2CCC3(CC2)Cn2c(cccc2=O)[C@H]3N)cnc1Sc1ccnc(N)c1Cl [Example 70, (S)-1-amino-1′-(6-amino-5-((2-amino-3-chloropyridin-4-yl)thio)pyrazin-2-yl)-3H-spiro[indolizine-2,4′-piperidin]-5(1H)-one] | 30% |
| Nc1nc(N2CCC3(CC2)c2cccnc2C[C@H]3N)cnc1Sc1ccnc(N)c1Cl [Example 72, (R)-1′-(6-amino-5-((2-amino-3-chloropyridin-4-yl)thio)pyrazin-2-yl)-6,7-dihydrospiro[cyclopenta [b]pyridine-5,4′-piperidin]-6-amine] | 28% |
| Nc1nc(N2CCC3(CC2)Cc2ncc(Cl)cc2[C@H]3N)cnc1Sc1ccnc(N)c1Cl [Example 73, (S)-1′-(6-amino-5-((2-amino-3-chloropyridin-4-yl)thio)pyrazin-2-yl)-3-chloro-5,7-dihydro-spiro[cyclopenta[b]pyridine-6,4′-piperidin]-5-amine] | 80% |
| CSc1ccc2c(c1)[C@@H](N)C1(CCN(c3cnc(Sc4ccnc(N)c4Cl)c(N)n3)CC1)C2 [Example 74, (S)-1′-(6-amino-5-((2-amino-3-chloropyridin-4-yl)thio)pyrazin-2-yl)-6-(methylthio)-1,3-dihydro-spiro[indene-2,4′-piperidin]-1-amine] | 76% |
| CN1CCN(c2ccc3c(c2)[C@@H](N)C2(CCN(c4cnc(Sc5ccnc(N)c5Cl)c(N)n4)CC2)C3)CC1 [Example 75, (S)-1′-(6-amino-5-((2-amino-3-chloropyridin-4-yl)thio)pyrazin-2-yl)-6-(4-methylpiperazin-1-yl)-1,3-dihydrospiro [indene-2,4′-piperidin]-1-amine] | 16% |
| CC(=O)N1CC(F)(F)c2c(Sc3ncc(N4CCC5(CC4)Cc4ccccc4[C@H]5N)nc3N)cccc21 [Example 78, (S)-1-(4-((3-amino-5-(1-amino-1,3-dihydrospiro[indene-2,4′-piperidin]-1′-yl)pyrazin-2-yl)thio)-3,3-difluoroindolin-1-yl)ethan-1-one] | 67% |
| CC(C)(C)c1cc2c(s1)CC1(CCN(c3cnc(Sc4ccnc(N)c4Cl)c(N)n3)CC1)[C@@H]2N [Example 79, (S)-1′-(6-amino-5-((2-amino-3-chloropyridin-4-yl)thio)pyrazin-2-yl)-2-(tert-butyl)-4,6-dihydro-spiro[cyclopenta [b]thiophene-5,4′-piperidin]-4-amine] | 58% |
| Nc1nc(N2CCC3(CC2)Cc2ccc(C(=O)O)cc2[C@H]3N)cnc1Sc1ccnc(N)c1Cl [Example 80, (S)-1-amino-1′-(6-amino-5-((2-amino-3-chloropyridin-4-yl)thio)pyrazin-2-yl)-1,3-dihydrospiro [indene-2,4′-piperidine]-6-carboxylic acid] | 75% |
| CCOP(=O)(OCC)c1ccc2c(c1)[C@@H](N)C1(CCN(c3cnc(Sc4ccnc(N)c4Cl)c(N)n3)CC1)C2 [Example 90, diethyl (S)-(1-amino-1′-(6-amino-5-((2-amino-3-chloropyridin-4-yl)thio)pyrazin-2-yl)-1,3-dihydrospiro [indene-2,4′-piperidin]-6-yl) phosphonate] | 71% |
| Nc1nc(N2CCC3(CC2)Oc2ncccc2[C@H]3N)cnc1Sc1ccnc(N)c1Cl [Example 96] | 66% |
| Nc1cccc(Sc2cnc(N3CCC4(CC3)Cc3ncccc3[C@H]4N)cn2)c1Cl [Example 97, (S)-1′-(5-((3-amino-2-chlorophenyl)thio)pyrazin-2-yl)-5,7-dihydro-spiro[cyclopenta [b]pyridine-6,4′-piperidin]-5-amine] | 86% |
| Nc1cccc(Sc2ncc(N3CCC4(CC3)Cc3ncccc3[C@H]4N)nc2N)c1Cl [Example 98, (S)-1′-(6-amino-5-((3-amino-2-chlorophenyl)thio)pyrazin-2-yl)-5,7-dihydrospiro [cyclopenta[b]pyridine-6,4′-piperidin]-5-amine] | 81% |
| N[C@@H]1c2cccnc2CC12CCN(c1cnc(Sc3cc(F)ncc3Cl)cn1)CC2 [Example 101, (S)-1′-(5-((5-chloro-2-fluoro-pyridin-4-yl)thio)pyrazin-2-yl)-5,7-dihydrospiro[cyclopenta [b]pyridine-6,4′-piperidin]-5-amine] | 83% |
| Nc1nc(N2CCC3(CC2)Cc2ncccc2[C@H]3N)cnc1Sc1cc(F)ncc1Cl [Example 102, (S)-1′-(6-amino-5-((5-chloro-2-fluoropyridin-4-yl)thio)pyrazin-2-yl)-5,7-dihydro-spiro[cyclopenta[b]pyridine-6,4′-piperidin]-5-amine] | 81% |
